Consider 16 molecules from patent US11485742B2, “2-azaspiro[3.4]octane derivatives as M4 agonists” (NOVARTIS AG, priority 2019, dated 2022).

A word on the EC50: it is the midpoint of the concentration-response curve.

Molecules are shown by their SMILES.

Assay [1] deals with T1, human cloned CHRM3 receptor (Homo sapiens, UniProt P20309).
T1 construct: expressed in transfected cells; host or cells: CHO-K1 (M3_CHO)
Kind of assay: CHRM3 Ca++ Flux Assay (M3_CHO cells, agonist mode). The format is cell-based. The conditions noted are these: for Emax: Percent Activity (PA) measured to EC100 of Carbachol, read-out: M3 FDSS PA %; for EC50: agonist mode, geometric mean if tested more than once, read-out: M3 FDSS EC50. Put shortly: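 CHO-K1 cells stably expressing human M3 or M5 receptor, dye-loaded ≥1 h, treated with 11-point compound doses in triplicate; Ca++ flux read over 3 min (FDSS). Agonist-mode four-parameter fit; percent activity relative to carbachol EC100; repeat tests reported as geometric mean.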

Assay [2] deals with T2, Cloned human M1 receptor (CHRM1) (Homo sapiens, UniProt P11229).
T2 construct: expressed in transfected cells; host or cells: HEK293
T2 sequence (P11229 1-460): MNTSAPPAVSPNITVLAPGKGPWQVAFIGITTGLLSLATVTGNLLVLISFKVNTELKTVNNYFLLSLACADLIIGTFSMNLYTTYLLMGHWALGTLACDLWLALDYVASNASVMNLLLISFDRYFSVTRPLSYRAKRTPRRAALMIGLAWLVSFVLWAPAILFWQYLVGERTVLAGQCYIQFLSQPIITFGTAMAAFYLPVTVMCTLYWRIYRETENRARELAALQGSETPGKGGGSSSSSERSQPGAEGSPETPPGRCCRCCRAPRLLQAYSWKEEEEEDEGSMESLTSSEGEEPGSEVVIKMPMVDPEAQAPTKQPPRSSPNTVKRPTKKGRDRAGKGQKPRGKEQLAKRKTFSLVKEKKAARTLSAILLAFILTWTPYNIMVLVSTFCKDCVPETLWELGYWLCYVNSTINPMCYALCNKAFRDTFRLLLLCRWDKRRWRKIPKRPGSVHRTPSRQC
Kind of assay: CHRM1 Ca++ Flux Assay (HEK293 M1 cells, agonist mode). The class given is cell-based. The conditions noted are these: for Emax: Percent Activity (PA), read-out: M1 FDSS PA %; for EC50: geometric mean if tested more than once, read-out: M1 FDSS EC50. The gist of the method:
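HEK293 cells stably expressing human M1 were loaded with Ca++ dye, then given compounds (11-point dose, triplicate) in HBSS −Ca/−Mg, 20 mM HEPES. Ca++ flux was read over 3 min (agonist mode). Four-parameter curves were fitted, with activity as percent of carbachol EC100.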

T1 sequence (P20309 whole entry): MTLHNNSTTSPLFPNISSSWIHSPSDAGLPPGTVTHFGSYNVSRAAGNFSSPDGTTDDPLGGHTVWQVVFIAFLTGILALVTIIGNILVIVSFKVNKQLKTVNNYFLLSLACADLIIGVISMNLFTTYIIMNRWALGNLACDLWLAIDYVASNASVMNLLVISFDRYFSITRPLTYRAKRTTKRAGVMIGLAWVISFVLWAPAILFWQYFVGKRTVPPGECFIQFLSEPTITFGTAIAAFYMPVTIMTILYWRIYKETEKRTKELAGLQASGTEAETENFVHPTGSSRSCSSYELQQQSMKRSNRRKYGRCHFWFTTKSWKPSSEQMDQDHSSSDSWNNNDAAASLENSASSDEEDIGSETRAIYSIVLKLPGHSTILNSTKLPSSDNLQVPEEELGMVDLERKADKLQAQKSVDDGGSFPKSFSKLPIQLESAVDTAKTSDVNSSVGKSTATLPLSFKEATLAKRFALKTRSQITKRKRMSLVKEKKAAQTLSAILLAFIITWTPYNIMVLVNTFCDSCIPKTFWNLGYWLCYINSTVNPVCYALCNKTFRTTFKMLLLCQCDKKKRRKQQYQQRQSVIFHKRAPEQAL

Regarding `COc1ccccc1C1CCN([C@@H]2COC3(C2)CN(c2nnco2)C3)CC1` [Example 1Q, (S)-7-(4-(2-methoxyphenyl)piperidin-1-yl)-2-(1,3,4-oxadiazol-2-yl)-5-oxa-2-azaspiro[3.4]octane], the Emax in assay [1] came to 0%; in assay [2] it was 81%. Also, the results for the EC50 in assay [1] and in assay [2] were over 25000 nM and 678 nM, respectively.

As to `Fc1ccc(OCc2ncccn2)c(C2CCN([C@@H]3COC4(C3)CN(c3nnco3)C4)CC2)c1` [Example 2I, (S)-7-(4-(5-fluoro-2-(pyrimidin-2-ylmethoxy)phenyl)piperidin-1-yl)-2-(1,3,4-oxadiazol-2-yl)-5-oxa-2-azaspiro[3.4]octane], in assay [1], the Emax was 0% and the EC50 is over 25000 nM. In assay [2], the Emax came to 97% and the EC50 was determined as 98 nM.

Regarding `CC(C)(O)CCOc1cc(F)ccc1C1CCN([C@@H]2COC3(C2)CN(c2nncs2)C3)CC1` [Example 5V, (S)-4-(2-(1-(2-(1,3,4-thiadiazol-2-yl)-5-oxa-2-azaspiro[3.4]octan-7-yl)piperidin-4-yl)-5-fluorophenoxy)-2-methylbutan-2-ol], in assay [1], the Emax came out at 0% and the EC50 is over 25000 nM. In assay [2], the Emax was determined as 79% and the EC50 was determined as 786 nM.

Turning to `COCCOc1ccc(F)cc1C1CCN([C@@H]2COC3(C2)CN(c2nnco2)C3)CC1` [Example 1L, (S)-7-(4-(5-fluoro-2-(2-methoxyethoxy)phenyl)piperidin-1-yl)-2-(1,3,4-oxadiazol-2-yl)-5-oxa-2-azaspiro[3.4]octane], in assay [1], the Emax stood at 0% and the EC50 is over 25000 nM. Besides, in assay [2], the Emax was 75% and the EC50 stood at 1320 nM.

For the molecule `c1ccc(C2CCN([C@@H]3COC4(C3)CN(c3nnco3)C4)CC2)c(O[C@@H]2CCOC2)c1` [Example 1O, (S)-2-(1,3,4-oxadiazol-2-yl)-7-(4-(2-(((R)-tetrahydrofuran-3-yl)oxy)phenyl)piperidin-1-yl)-5-oxa-2-azaspiro[3.4]octane], in assay [1], the Emax came out at 0% and the EC50 was over 25000 nM. For the same molecule, in assay [2], the Emax turned out to be 69% and the EC50 amounted to 1350 nM.

Take `Fc1ccc(OC2CCOCC2)c(C2CCN([C@@H]3COC4(C3)CN(c3ncon3)C4)CC2)c1` [Example 6A, (S)-7-(4-(5-fluoro-2-((tetrahydro-2H-pyran-4-yl)oxy)phenyl)piperidin-1-yl)-2-(1,2,4-oxadiazol-3-yl)-5-oxa-2-azaspiro[3.4]octane]: the values for the Emax in assay [1] and in assay [2] were 0% and 53%, respectively. In addition, the EC50 in assay [1] was over 25000 nM; in assay [2], 887 nM.

With `COc1ccc(F)cc1C1CCN([C@@H]2COC3(C2)CN(c2nnco2)C3)CC1` [Example 1V, (S)-7-(4-(5-fluoro-2-methoxyphenyl)piperidin-1-yl)-2-(1,3,4-oxadiazol-2-yl)-5-oxa-2-azaspiro[3.4]octane], in assay [1], the Emax is 0% and the EC50 is over 25000 nM. Also, in assay [2], the Emax was found to be 76% and the EC50 was determined as 663 nM.

As for `c1ccc(C2CCN([C@@H]3COC4(C3)CN(c3nnco3)C4)CC2)c(-c2cncnc2)c1` [Example 1W, (S)-2-(1,3,4-oxadiazol-2-yl)-7-(4-(2-(pyrimidin-5-yl)phenyl)piperidin-1-yl)-5-oxa-2-azaspiro[3.4]octane], in assay [1], the Emax stood at 0% and the EC50 was over 25000 nM. In addition, in assay [2], the Emax came to 94% and the EC50 turned out to be 335 nM.

Take `c1ccc(C2CCN([C@@H]3COC4(C3)CN(c3nnco3)C4)CC2)c(OC2COC2)c1` [Example 1P, (S)-2-(1,3,4-oxadiazol-2-yl)-7-(4-(2-(oxetan-3-yloxy)phenyl)piperidin-1-yl)-5-oxa-2-azaspiro[3.4]octane]: in assay [1], the Emax came out at 0% and the EC50 is over 25000 nM. Besides, in assay [2], the Emax was found to be 76% and the EC50 turned out to be 439 nM.

Take `Fc1ccc(OC2CC3(COC3)C2)c(C2CCN([C@@H]3COC4(C3)CN(c3nnco3)C4)CC2)c1` [Example 2L, (S)-7-(4-(2-((2-oxaspiro[3.3]heptan-6-yl)oxy)-5-fluorophenyl)piperidin-1-yl)-2-(1,3,4-oxadiazol-2-yl)-5-oxa-2-azaspiro[3.4]octane]: in assay [1], the Emax came out at 0% and the EC50 was over 25000 nM. Further, in assay [2], the Emax came out at 47% and the EC50 came out at 2220 nM.

With `CC(C)(O)COc1ccccc1C1CCN([C@@H]2COC3(C2)CN(c2ncns2)C3)CC1` [Example 5Y, (S)-1-(2-(1-(2-(1,2,4-thiadiazol-5-yl)-5-oxa-2-azaspiro[3.4]octan-7-yl)piperidin-4-yl)phenoxy)-2-methylpropan-2-ol], in assay [1], the Emax worked out at 0% and the EC50 is over 25000 nM. Also, in assay [2], the Emax is 47% and the EC50 turned out to be 1990 nM.

For `Fc1ccc(OC2COC2)c(C2CCN([C@@H]3COC4(C3)CN(c3nnco3)C4)CC2)c1` [Example 1A, (S)-7-(4-(5-fluoro-2-(oxetan-3-yloxy)phenyl)piperidin-1-yl)-2-(1,3,4-oxadiazol-2-yl)-5-oxa-2-azaspiro[3.4]octane], in assay [1], the Emax came out at 0% and the concentration for a half-maximal effect (EC50) is over 25000 nM. For the same molecule, in assay [2], the Emax stood at 92% and the half-maximal effective concentration (EC50) came out at 210 nM.

With `COC(C)(C)CCOc1ccc(F)cc1C1CCN([C@@H]2COC3(C2)CN(c2nnco2)C3)CC1` [Example 1K, (S)-7-(4-(5-fluoro-2-(3-methoxy-3-methylbutoxy)phenyl)piperidin-1-yl)-2-(1,3,4-oxadiazol-2-yl)-5-oxa-2-azaspiro[3.4]octane], in assay [1], the Emax worked out at 0% and the EC50 is over 25000 nM. Moreover, in assay [2], the Emax was 58% and the EC50 is 1590 nM.

Regarding `Fc1ccc(OCC2CCOCC2)c(C2CCN([C@@H]3COC4(C3)CN(c3nnco3)C4)CC2)c1` [Example 1J, (S)-7-(4-(5-fluoro-2-((tetrahydro-2H-pyran-4-yl)methoxy)phenyl)piperidin-1-yl)-2-(1,3,4-oxadiazol-2-yl)-5-oxa-2-azaspiro[3.4]octane], in assay [1], the Emax turned out to be 0% and the EC50 is over 25000 nM. For the same molecule, in assay [2], the Emax stood at 73% and the EC50 was determined as 4090 nM.

On to `Fc1ccc(OC2COC2)c(C2CCN([C@@H]3COC4(C3)CN(c3ncon3)C4)CC2)c1` [Example 6B, (S)-7-(4-(5-fluoro-2-(oxetan-3-yloxy)phenyl)piperidin-1-yl)-2-(1,2,4-oxadiazol-3-yl)-5-oxa-2-azaspiro[3.4]octane], for which, in assay [1], the Emax was determined as 0% and the EC50 is over 25000 nM. In assay [2], the Emax was determined as 88% and the EC50 stood at 490 nM.

Regarding `CCc1nnc(COc2ccc(F)cc2C2CCN([C@@H]3COC4(C3)CN(c3nnco3)C4)CC2)s1` [Example 2T, (S)-7-(4-(2-((5-ethyl-1,3,4-thiadiazol-2-yl)methoxy)-5-fluorophenyl)piperidin-1-yl)-2-(1,3,4-oxadiazol-2-yl)-5-oxa-2-azaspiro[3.4]octane], in assay [1], the Emax was 0% and the EC50 is over 25000 nM. Besides, in assay [2], the Emax is 89% and the EC50 stood at 63 nM.
